pEC50: −log10 of the molar value.
Tested on: human venous endothelial cells (HUVECs)
Assay: In vitro angiogenesis model (pseudotubule length of HUVECs on matrigel/collagen)
Format: cell-based
Set-up: % activation with respect to FGF2 (in vitro): concentration or dose not given beside the values
Details: for pEC50 / % activation with respect to FGF2 (in vitro): in vitro; for % activation with respect to FGF2 (in vitro): relative to FGF2; for active on the in vitro angiogenesis model: at a concentration of 10 nM
Experimental: In Vitro Angiogenesis Model
The products are tested for their ability to cause rearrangement of human venous endothelial cells (HUVECs) on matrigel (Becton dickinson 356230) diluted in collagen (rat tail collagen, type I: Becton dickinson 354236). After 24 hours, the cells are observed under a microscope with a ×4 objective and the length of the pseudotubules is measured by means of an image analyser (BIOCOM-logiciel Visiolab 2000).

## Cc1c(-c2cccc(OCCOCCOCCOCCOc3cccc(-c4c(C)c(C(=O)c5ccc6[nH]c(=O)n(CC(=O)O)c(=O)c6c5)n5ccccc45)c3)c2)c2ccccn2c1C(=O)c1ccc2[nH]c(=O)n(CC(=O)O)c(=O)c2c1 [Compound 2, 2,2′-{oxybis[ethane-2,1-diyloxyethane-2,1-diyloxybenzene-3,1-diyl(2-methylindolizine-1,3-diyl)carbonyl(2,4-dioxo-1,4-dihydroquinazoline-6,3(2H)-diyl)]}diacetic acid]
Homo sapiens, HUVEC
  pEC50: > 9.00
  % activation with respect to FGF2 (in vitro): 44%

## Cc1c(-c2ccc(OCCOCCOCCOc3ccc(-c4c(C)c(C(=O)c5ccc6[nH]c(=O)n(CC(=O)O)c(=O)c6c5)n5ccccc45)cc3)cc2)c2ccccn2c1C(=O)c1ccc2[nH]c(=O)n(CC(=O)O)c(=O)c2c1 [Compound 3, 2,2′-{ethane-1,2-diylbis[oxyethane-2,1-diyloxybenzene-4,1-diyl(2-methylindolizine-1,3-diyl)carbonyl(2,4-dioxo-1,4-dihydroquinazoline-6,3(2H)-diyl)]}diacetic acid]
Homo sapiens, HUVEC
  pEC50: > 9.00
  active on the in vitro angiogenesis model: active
  % activation with respect to FGF2 (in vitro): 74%

## Cc1c(-c2ccc(OCC(=O)NCCCCNC(=O)COc3ccc(-c4c(C)c(C(=O)c5ccc6[nH]c(=O)n(CC(=O)O)c(=O)c6c5)n5ccccc45)cc3)cc2)c2ccccn2c1C(=O)c1ccc2[nH]c(=O)n(CC(=O)O)c(=O)c2c1 [Compound 5]
  pEC50: > 7.00
  % activation with respect to FGF2 (in vitro): 30%

## Cc1c(-c2cccc(OCC(=O)NCCCCCCNC(=O)COc3cccc(-c4c(C)c(C(=O)c5ccc6[nH]c(=O)n(CC(=O)O)c(=O)c6c5)n5ccccc45)c3)c2)c2ccccn2c1C(=O)c1ccc2[nH]c(=O)n(CC(=O)O)c(=O)c2c1 [Compound 6]
  pEC50: > 7.00
  % activation with respect to FGF2 (in vitro): 29%

## Cc1c(-c2cccc(OCC(=O)NCCCCNC(=O)COc3cccc(-c4c(C)c(C(=O)c5ccc6[nH]c(=O)n(CC(=O)O)c(=O)c6c5)n5ccccc45)c3)c2)c2ccccn2c1C(=O)c1ccc2[nH]c(=O)n(CC(=O)O)c(=O)c2c1 [Compound 7]
  pEC50: > 7.00
  % activation with respect to FGF2 (in vitro): 28%

## Cc1c(-c2ccc(OCCCCCN(CCCCCOc3ccc(-c4c(C)c(C(=O)c5ccc6c(=O)n(CC(=O)O)c(=O)[nH]c6c5)n5ccccc45)cc3)CCOCCO)cc2)c2ccccn2c1C(=O)c1ccc2c(=O)n(CC(=O)O)c(=O)[nH]c2c1 [Compound 8, 2,2′-({[2-(2-hydroxyethoxy)ethyl]imino}bis[pentane-5,1-diyloxybenzene-4,1-diyl(2-methylindolizine-1,3-diyl)carbonyl(2,4-dioxo-1,4-dihydroquinazoline-7,3(2H)-diyl)])diacetic acid]
Homo sapiens, HUVEC
  pEC50: > 9.00
  % activation with respect to FGF2 (in vitro): 42%

## CCN(CCCCCOc1ccc(-c2c(C)c(C(=O)c3ccc4c(=O)n(CC(=O)O)c(=O)[nH]c4c3)n3ccccc23)cc1)CCCCCOc1ccc(-c2c(C)c(C(=O)c3ccc4c(=O)n(CC(=O)O)c(=O)[nH]c4c3)n3ccccc23)cc1 [Compound 9, 2,2′-{(ethylimino)bis[pentane-5,1-diyloxybenzene-4,1-diyl(2-methylindolizine-1,3-diyl)carbonyl(2,4-dioxo-1,4-dihydroquinazoline-7,3(2H)-diyl)]}diacetic acid]
Homo sapiens, HUVEC
  pEC50: > 7.00
  % activation with respect to FGF2 (in vitro): 28%

## Cc1c(-c2ccc(OCCCCCN(CCCCCOc3ccc(-c4c(C)c(C(=O)c5ccc6c(=O)n(CC(=O)O)c(=O)[nH]c6c5)n5ccccc45)cc3)CCN3CCOCC3)cc2)c2ccccn2c1C(=O)c1ccc2c(=O)n(CC(=O)O)c(=O)[nH]c2c1 [Compound 10, 2,2′-({[2-(morpholin-4-yl)ethyl]imino}bis[pentane-5,1-diyloxybenzene-4,1-diyl(2-methylindolizine-1,3-diyl)carbonyl(2,4-dioxo-1,4-dihydroquinazoline-7,3(2H)-diyl)])diacetic acid]
Homo sapiens, HUVEC
  pEC50: > 9.00
  % activation with respect to FGF2 (in vitro): 41%

## Cc1c(-c2ccc(OCCCCCN(CCCCCOc3ccc(-c4c(C)c(C(=O)c5ccc6c(=O)n(CC(=O)O)c(=O)[nH]c6c5)n5ccccc45)cc3)CCN3CCN(C)CC3)cc2)c2ccccn2c1C(=O)c1ccc2c(=O)n(CC(=O)O)c(=O)[nH]c2c1 [Compound 11, 2,2′-({[2-(4-methylpiperazin-1-yl)ethyl]imino}bis[pentane-5,1-diyloxybenzene-4,1-diyl(2-methylindolizine-1,3-diyl)carbonyl(2,4-dioxo-1,4-dihydroquinazoline-7,3(2H)-diyl)])diacetic acid]
Homo sapiens, HUVEC
  pEC50: > 9.00
  % activation with respect to FGF2 (in vitro): 63%

## Cc1c(-c2ccc(OCCCCCN(CCCCCOc3ccc(-c4c(C)c(C(=O)c5ccc6c(=O)n(CC(=O)O)c(=O)[nH]c6c5)n5ccccc45)cc3)Cc3ccncc3)cc2)c2ccccn2c1C(=O)c1ccc2c(=O)n(CC(=O)O)c(=O)[nH]c2c1 [Compound 12, 2,2′-{[(pyridin-4-ylmethyl)imino]bis[pentane-5,1-diyloxybenzene-4,1-diyl(2-methylindolizine-1,3-diyl)carbonyl(2,4-dioxo-1,4-dihydroquinazoline-7,3(2H)-diyl)]}diacetic acid]
Homo sapiens, HUVEC
  pEC50: > 9.00
  % activation with respect to FGF2 (in vitro): 42%

## Cc1c(-c2ccc(OCCCCCN(CCCCCOc3ccc(-c4c(C)c(C(=O)c5ccc6c(=O)n(CC(=O)O)c(=O)[nH]c6c5)n5ccccc45)cc3)Cc3ccc(N(C)C)cc3)cc2)c2ccccn2c1C(=O)c1ccc2c(=O)n(CC(=O)O)c(=O)[nH]c2c1 [Compound 13, 2,2′-({[4-(dimethylamino)benzyl]imino}bis[pentane-5,1-diyloxybenzene-4,1-diyl(2-methylindolizine-1,3-diyl)carbonyl(2,4-dioxo-1,4-dihydroquinazoline-7,3(2H)-diyl)])diacetic acid]
Homo sapiens, HUVEC
  pEC50: > 7.00
  % activation with respect to FGF2 (in vitro): 23%

## CCN(CC)CCN(CCCCCOc1ccc(-c2c(C)c(C(=O)c3ccc4c(=O)n(CC(=O)O)c(=O)[nH]c4c3)n3ccccc23)cc1)CCCCCOc1ccc(-c2c(C)c(C(=O)c3ccc4c(=O)n(CC(=O)O)c(=O)[nH]c4c3)n3ccccc23)cc1 [Compound 14, 2,2′-({[2-(diethylamino)ethyl]imino}bis[pentane-5,1-diyloxybenzene-4,1-diyl(2-methylindolizine-1,3-diyl)carbonyl(2,4-dioxo-1,4-dihydroquinazoline-7,3(2H)-diyl)])diacetic acid]
Homo sapiens, HUVEC
  pEC50: > 9.00
  % activation with respect to FGF2 (in vitro): 62%

## Cc1c(-c2ccc(OCCCN3CCN(CCCOc4ccc(-c5c(C)c(C(=O)c6ccc7c(=O)n(CC(=O)O)c(=O)[nH]c7c6)n6ccccc56)cc4)CC3)cc2)c2ccccn2c1C(=O)c1ccc2c(=O)n(CC(=O)O)c(=O)[nH]c2c1 [Compound 15, 2,2′-{piperazine-1,4-diylbis[propane-3,1-diyloxybenzene-4,1-diyl(2-methylindolizine-1,3-diyl)carbonyl(2,4-dioxo-1,4-dihydroquinazoline-7,3(2H)-diyl)]}diacetic acid]
Homo sapiens, HUVEC
  pEC50: > 7.00
  % activation with respect to FGF2 (in vitro): 24%

## Cc1c(-c2ccc(C(=O)NCCOP(=O)(O)OCCNC(=O)c3ccc(-c4c(C)c(C(=O)c5ccc6c(=O)n(CC(=O)O)c(=O)[nH]c6c5)n5ccccc45)cc3)cc2)c2ccccn2c1C(=O)c1ccc2c(=O)n(CC(=O)O)c(=O)[nH]c2c1 [Compound 16, [7-({1-[4-({9-[4-(3-{[3-(carboxymethyl)-2,4-dioxo-1,4-dihydroquinazolin-7(2H)-yl]carbonyl}-2-methylindolizin-1-yl)phenyl]-4-hydroxy-4-oxido-9-oxo-3,5-dioxa-8-aza-4λ^5-phosphanon-1-yl}carbamoyl)phenyl]-2-methylindolizin-3-yl}carbonyl)-2,4-dioxo-1,4-dihydroquinazolin-3(2H)-yl]acetic acid]
Homo sapiens, HUVEC
  pEC50: > 9.00
  active on the in vitro angiogenesis model: active
  % activation with respect to FGF2 (in vitro): 82%

## Cc1c(-c2ccc(C(=O)NCCOCCOCCNC(=O)c3ccc(-c4c(C)c(C(=O)c5ccc6c(=O)n(CC(=O)O)c(=O)[nH]c6c5)n5ccccc45)cc3)cc2)c2ccccn2c1C(=O)c1ccc2c(=O)n(CC(=O)O)c(=O)[nH]c2c1 [Compound 17, 2,2′-{ethane-1,2-diylbis[oxyethane-2,1-diylcarbamoylbenzene-4,1-diyl(2-methylindolizine-1,3-diyl)carbonyl(2,4-dioxo-1,4-dihydroquinazoline-7,3(2H)-diyl)]}diacetic acid]
  pEC50: 8.00
  % activation with respect to FGF2 (in vitro): 44%

## Cc1c(-c2cccc(C(=O)NCCOCCOCCNC(=O)c3cccc(-c4c(C)c(C(=O)c5ccc6c(=O)n(CC(=O)O)c(=O)[nH]c6c5)n5ccccc45)c3)c2)c2ccccn2c1C(=O)c1ccc2c(=O)n(CC(=O)O)c(=O)[nH]c2c1 [Compound 18, 2,2′-{ethane-1,2-diylbis[oxyethane-2,1-diylcarbamoylbenzene-3,1-diyl(2-methylindolizine-1,3-diyl)carbonyl(2,4-dioxo-1,4-dihydroquinazoline-7,3(2H)-diyl)]}diacetic acid]
  pEC50: > 9.00
  % activation with respect to FGF2 (in vitro): 85%

## Cc1c(-c2cccc(C(=O)NCCOP(=O)(O)OCCNC(=O)c3cccc(-c4c(C)c(C(=O)c5ccc6c(=O)n(CC(=O)O)c(=O)[nH]c6c5)n5ccccc45)c3)c2)c2ccccn2c1C(=O)c1ccc2c(=O)n(CC(=O)O)c(=O)[nH]c2c1 [Compound 19, [7-({1-[3-({9-[3-(3-{[3-(carboxymethyl)-2,4-dioxo-1,4-dihydroquinazolin-7(2H)-yl]carbonyl}-2-methylindolizin-1-yl)phenyl]-4-hydroxy-4-oxido-9-oxo-3,5-dioxa-8-aza-4λ^5-phosphanon-1-yl}carbamoyl)phenyl]-2-methylindolizin-3-yl}carbonyl)-2,4-dioxo-1,4-dihydroquinazolin-3(2H)-yl]acetic acid]
Homo sapiens, HUVEC
  pEC50: 8.52
  % activation with respect to FGF2 (in vitro): 35%

## Cc1c(NC(=O)c2cccc(OCC(=O)NCCNC(=O)COc3cccc(C(=O)Nc4c(C)c(C(=O)c5ccc6c(=O)n(CC(=O)O)c(=O)[nH]c6c5)n5ccccc45)c3)c2)c2ccccn2c1C(=O)c1ccc2c(=O)n(CC(=O)O)c(=O)[nH]c2c1 [Compound 20]
  pEC50: > 8.52
  % activation with respect to FGF2 (in vitro): 61%

Source: US9206177B2, “Substituted dimeric quinazoline-2,4-diones as FGF receptor agonists” (Sanofi, priority 2011, dated 2015)
